Read-outs that look alike come from different tables or passages of the source.
Legend:
Glucocorticoid Receptor = biological target: T1, Glucocorticoid Receptor (Homo sapiens, UniProt P04150); experiment: Trans-Activation Modulation of Glucocorticoid Receptor (GRAMMER), MMTV-LUC reporter gene in A549 cells; format: cell-based; details: Table 1; for Emax: A549, A549 cells, Emax relative to 300 nM dexamethasone, read-out: Transactivation A549 Cells GRAMMER Emax; for EC50: inflection point, A549 cells, read-out: Transactivation A549 Cells GRAMMER IP
T1 construct: These cells express large amount of the GR and are very responsive to GC treatment; endogenous in cells; host or cells: A549 cells transiently transfected with the MMTV-LUC reporter
T1 sequence (P04150 1-777): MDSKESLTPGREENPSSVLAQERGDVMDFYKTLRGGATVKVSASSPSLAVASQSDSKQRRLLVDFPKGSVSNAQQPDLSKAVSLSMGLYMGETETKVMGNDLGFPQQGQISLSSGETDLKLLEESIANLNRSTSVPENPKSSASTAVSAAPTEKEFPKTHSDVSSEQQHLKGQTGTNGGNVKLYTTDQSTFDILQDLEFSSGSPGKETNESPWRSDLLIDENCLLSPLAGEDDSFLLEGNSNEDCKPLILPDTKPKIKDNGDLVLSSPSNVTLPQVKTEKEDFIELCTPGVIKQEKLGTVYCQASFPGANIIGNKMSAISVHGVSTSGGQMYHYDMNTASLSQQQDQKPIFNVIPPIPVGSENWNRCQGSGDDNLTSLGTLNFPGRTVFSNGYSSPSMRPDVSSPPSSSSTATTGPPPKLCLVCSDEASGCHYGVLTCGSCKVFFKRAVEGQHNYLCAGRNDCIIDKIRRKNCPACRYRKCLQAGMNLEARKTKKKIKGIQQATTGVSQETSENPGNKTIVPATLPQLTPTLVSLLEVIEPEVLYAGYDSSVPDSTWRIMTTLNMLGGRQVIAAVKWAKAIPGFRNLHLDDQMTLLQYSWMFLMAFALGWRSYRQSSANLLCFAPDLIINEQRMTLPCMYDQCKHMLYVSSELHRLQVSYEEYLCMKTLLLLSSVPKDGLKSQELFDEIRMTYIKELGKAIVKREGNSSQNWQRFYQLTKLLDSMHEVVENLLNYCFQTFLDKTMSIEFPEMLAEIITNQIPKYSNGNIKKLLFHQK
Source text: Trans-Activation Modulation of Glucocorticoid Receptor (GRAMMER)
This assay assesses the ability of test compounds to control transcription from the MMTV-LUC reporter gene in lung adenocarcinoma A549 cells or MDA-MB-453 cells, a human breast cancer cell line that naturally expresses the human GR. The assay measures induction of a modified MMTV LTR/promoter linked to the LUC reporter gene.
The routine transient assay consists of plating 7,000-25,000 cells/well of a white, clear-bottom 96-well plate. Alternatively, 384-well plates can be used at a cell concentration of 10,000/well. The media that the cells are plated in is “exponential growth medium” which consists of phenol red-free RPMI1640 containing 10% FBS, 4 mM L-glutamine, 20 mM HEPES, 10 ug/mL human insulin, and 20 ug/mL gentamicin. Incubator conditions are 37° C. and 5% CO2. The transfection is done in batch mode. The cells are trypsinized and counted to the right cell number in the proper amount of fresh media. It is then gently mixed with the FuGene6/DNA mix and plated onto the 96 or 384-well plate, all the wells receive 100 uL or 40 uL, respectively, of medium+lipid/DNA complex then incubated 37° C. overnight. The transfection cocktail consists of serum-free OptiMEM, FuGene6 reagent and DNA. The manufacturer's (Roche Biochemical) protocol for cocktail setup is as follows: The lipid to DNA ratio is approximately 2.5:1 and the incubation time is 20 min at room temperature. Sixteen to 24 hours after transfection, the cells are treated with dexamethasone to a final concentration of 10 nM as well as the compound of interest, such that final DMSO (vehicle) concentration is equal to or less than 1%. Each plate also contains samples that are treated with 10 nM dexamethasone alone, which is used as the 100% activity control. The cells are exposed to the compounds for 24 hours. After 24 hours, the cells are lysed by a Promega cell culture lysis buffer for approximately 30 min and then the luciferase activity in the extracts is assayed in the 96-well format luminometer. In 384-well format, Steady-Glo (Promega) or Steady-Lite (PerkinElmer) can be used by adding an equal volume of reagent to the media present in each well. Activity induced by 10 nM dexamethasone alone is set at 100% activity. Antagonist activity is calculated by determining the decrease in dexamethasone-induced activity in response to compound treatment relative to samples that were treated with dexamethasone alone. […] This transactivation assay can be performed in an agonist and antagonist mode to identify these different activities.
Activity of test compounds is calculated as the Emax relative to the activity obtained with 300 nM dexamethasone. Activity of test compounds is calculated as the Emax relative to the activity obtained with 300 nM DEX. […] The action of compounds is also tested in an antagonist mode (Anti-GRAMMER) in which the cells are treated with medium containing an agonist such as 10 nM DEX and the ability to agents to inhibit the activation by an agonist is measured.

human GR = biological target: T2, human GR (Homo sapiens, UniProt P04150); experiment: Transrepression Assay (GITAR), TNFα-β-lactamase reporter gene in U937 cells; format: cell-based; details: for GITAR Greater than by GRAMMER % SEP: GITAR Emax minus GRAMMER Emax; for EC50: inflection point, U937 cells, read-out: Transrepression U937 Cells GITAR IP
T2 construct: U937 cells contain an endogenous glucocorticoid receptor (GR); endogenous in cells; host or cells: U937 cells stably transfected with the TNF-alpha promoter/beta-lactamase reporter
T2 sequence (P04150 1-777): T1 sequence (P04150 1-777)
Source text: Transrepression Assay (GITAR)
This assay assesses the ability of test compounds to control transcription from the TNFα-β-lactamase reporter gene in U937 cells, a human myelomonocytic leukemia cell line that naturally expresses the human GR. The assay measures compound dependent-repression of the TNFa promoter linked to a reporter gene.
The human U937 cells that had been stablely transfected with the TNF-α promoter driving β-lactamase are used for this assay. U937 cells contain an endogenous glucocorticoid receptor (GR). Cells are maintained in RPMI 1640 Growth medium (Gibco Cat#11875-093) containing 25 mM HEPES, 10% FBS, 2 mM L-Glutamine, 1 mM Sodium pyruvate, 25 μg/ml Gentamicin (Gibco Cat#15710-064), 1:1000 2-Mercaptoethanol (Gibco Cat#21985-023) and 0.8 mg/ml G418 (Gibco Cat#10131-027). The density of the cells in the flask needs to be about 1×10^6−3×10^6/ml at the time of harvest. Usually, the cells are split to 1.2˜1.4×10^5/ml (1:10) 3 days prior to the assay. 50,000 cells/well are plated in 96 well black-walled plates the day of assay. Test compounds are added 10 pt/well, and cells are incubated at 37° C. for 30-45 min. For assaying compounds, first dilute 1:10 in DMSO to make 1 mM, then further dilute 1:100 in medium to make 10× stock prior to adding to the cells. Add 50 ng/ml PMA (Sigma, cat# P8139) 10 μL/well to a final concentration 5 ng/ml, and 1 μg/ml LPS (Sigma, cat# L4130) 10 μL/well to a final concentration 100 ng/ml. Incubate cells at 37° C. overnight for ˜18 hr. PMA is stored frozen as 100 μg/ml stock in DMSO. Dilute 1:10 in DMSO for a working stock of 10 μg/ml and store at −20C. For assaying, dilute the […] working stock 1:200 in medium to make a 10× solution (50 ng/ml). Store frozen LPS at 1 mg/ml in PBS, dilute 1:1000 in medium to make 10× (1 μg/ml) for the assay. Add 6× loading buffer (CCF2−AM) 20 μL/well, and incubate at room temperature for 70-90 min. […] The activity repressed by 100 nM dexamethasone alone is set as 100% activity.

[1] = biological target: T3, glucocorticoid receptor (GR) (Homo sapiens, UniProt P04150); experiment: Ligand binding assay (GR BIND), 3H-dexamethasone displacement in MDA-MB-453 cell lysate; details: GR BIND Ki, Table 1
T3 sequence (P04150 1-777): T1 sequence (P04150 1-777)
Method: Binding Buffer: TEGM (10 mM Tris-HCl, 1 mM EDTA, 10% glycerol, 1 mM beta-mecaptoethanol, 10 mM Sodium Molybdate, pH 7.2)
50% HAP Slurry: Calbiochem Hydroxylapatite, Fast Flow, in 10 mM Tris, pH 8.0 and 1 mM EDTA.
Wash Buffer: 40 mM Tris, pH7.5, 100 mM KCl, 1 mM EDTA and 1 mM EGTA.
Dexmethasone-methyl-^3H, (DEX*); (Amersham cat# TRK645)
Dexamethasone(DEX) (Sigma, cat# D1756):
The cell pellet is washed twice with TEGM (10 mM Tris-HCl, 1 mM EDTA, 10% glycerol, 1 mM beta-mercaptoethanol, 10 mM Sodium Molybdate, pH 7.2). After the final wash, the cells are resuspended in TEGM at a concentration of 10^7 cells/mL. The cell suspension is snap frozen in liquid nitrogen or ethanol/dry ice bath and transferred to −80° C. freezer on dry ice. Before setting up the binding assay, the frozen samples are left on ice-water to just thaw (˜1 hr). Then the samples are centrifuged at 12,500 g to 20,000 g for 30 min at 4° C. The supernatant is used to set-up assay right away. If using 50 μL of supernatant, the test compound can be prepared in 50 μL of the TEGM buffer.
Procedure for Multiple Compound Screening
1×TEGM buffer is prepared, and the isotope-containing assay mixture is prepared in the following order: EtOH (2% final concentration in reaction), ^3H-DEX (Amersham Biosciences) and 1×TEGM. [e.g. For 100 samples, 200 μL (100×2) of EtOH+4.25 μL of 1:10 ^3H-Dex stock+2300 μL (100×23) 1×TEGM]. The compound is serially diluted, e.g., if starting final conc. is 1 μM, and the compound is in 25 μL of solution, for duplicate samples, 75 μL of 4×1 μM solution is made and 3 μL of 100 μM is added to 72 μL of buffer, and 1:5 serial dilution.
25 μL of ^3H-DEX (6 nM) trace and 25 μL compound solution are first mixed together, followed by addition of 50 μL receptor solution. The reaction is gently mixed, spun briefly at about 200 rpm and incubated at 4° C. overnight. 100 μL of 50% HAP slurry is prepared and added to the incubated reaction which is then vortexed and incubated on ice for 5 to 10 minutes. The reaction mixture is vortexed twice more to resuspend HAP while incubating reaction. The samples in 96-well format are then washed in wash buffer using The FilterMate™ Universal Harvester plate washer (Packard). The washing process transfers HAP pellet containing ligand-bound expressed receptor to Unifilter-96 GF/B filter plate (Packard). The HAP pellet on the filter plate is incubated with 50 μL of MICROSCINT (Packard) scintillint for 30 minutes before being counted on the TopCount microscintillation counter (Packard). IC50s are calculated using DEX as a reference.

[2] = U-937, U937 cells, activity repressed by 100 nM dexamethasone = 100%, Table 1, read-out: Transrepression U937 Cells GITAR Emax
[3] = U-937, text statement, 100 nM dexamethasone = 100%, read-out: maximal activity in the transrepression assay (GITAR)

SMILES | Emax (Glucocorticoid Receptor) [%] | EC50 (Glucocorticoid Receptor) [nM] | GITAR Greater than by GRAMMER % SEP (human GR; Table 1) [%] | Emax (human GR; [2]) [%] | Emax (human GR; [3]) [%] | EC50 (human GR; Table 1) [nM] | Ki [1] [nM]
C[C@]12Cc3cnn(-c4ccc(F)cc4)c3C=C1CC[C@@H]2C(=O)N1CCCC(CCc2ccccc2)C1 (stereo partly drawn) [Compound 20, (4αR,5S)-1-(4-fluorophenyl)-4α-methyl-5-{[3-(2-phenylethyl)piperidin-1-yl]carbonyl}-1,4,4α,5,6,7-hexahydrocyclopenta[f]indazole] | 3.6 | 1.3 | 7.4 | 11 | > 5 | 693 | 3.1
C[C@]12Cc3cnn(-c4ccc(F)cc4)c3C=C1CC[C@@H]2C(=O)N1CCCC(Cc2cccc(C(F)(F)F)c2)C1 (stereo partly drawn) [Compound 21, (4αR,5S)-1-(4-fluorophenyl)-4α-methyl-5-({3-[3-(trifluoromethyl)benzyl]piperidin-1-yl}carbonyl)-1,4,4α,5,6,7-hexahydrocyclopenta[f]indazole] | 26.2 | 569 | 1.9 | 28.1 | > 5 | 742 | 2.3
C[C@]12Cc3cnn(-c4ccc(F)cc4)c3C=C1CC[C@@H]2C(=O)N1CCCCC1Cc1ccccc1 (stereo partly drawn) [Compound 22, (4αR,5S)-5-[(2-benzylpiperidin-1-yl)carbonyl]-1-(4-fluorophenyl)-4α-methyl-1,4,4α,5,6,7-hexahydrocyclopenta[f]indazole] | 5.5 | 386 | 11.7 | 17.3 | > 5 | 1970 | 4.8
CCNC(=O)CN(CCc1ccccc1)C(=O)[C@H]1CCC2=Cc3c(cnn3-c3ccc(F)cc3)C[C@@]21C [Compound 24, (4αR,5S)-N-[2-(ethylamino)-2-oxoethyl]-1-(4-fluorophenyl)-4α-methyl-N-(2-phenylethyl)-1,4,4α,5,6,7-hexahydrocyclopenta[f]indazole-5-carboxanide] | 9.2 | 615 | 5.3 | 14.5 | > 5 | 405 | 4.7
CCCCN(CCO)C(=O)[C@H]1CCC2=Cc3c(cnn3-c3ccc(F)cc3)C[C@@]21C [Compound 26, (4αR,5S)-N-butyl-1-(4-fluorophenyl)-N-(2-hydroxyethyl)-4α-methyl-1,4,4α,5,6,7-hexahydrocyclopenta[f]indazole-5-carboxamide] | 39.3 | 812 | 44.1 | 83.4 | > 5 | 809 | 16.4
Cc1ccc(CN(CCO)C(=O)[C@H]2CCC3=Cc4c(cnn4-c4ccc(F)cc4)C[C@@]32C)cc1F [Compound 27, (4αR,5S)-N-(3-fluoro-4-methylbenzyl)-1-(4-fluorophenyl)-N-(2-hydroxyethyl)-4α-methyl-1,4,4α,5,6,7-hexahydrocyclopenta[f]indazole-5-carboxamide] | 10.2 | 2160 | 45.6 | 55.8 | > 5 | 1620 | 13.9

Continued by falling EC50 (Glucocorticoid Receptor), values first:

Emax (Glucocorticoid Receptor) [%] | EC50 (Glucocorticoid Receptor) [nM] | GITAR Greater than by GRAMMER % SEP (human GR; Table 1) [%] | Emax (human GR; [2]) [%] | Emax (human GR; [3]) [%] | EC50 (human GR; Table 1) [nM] | Ki [1] [nM] | SMILES
9.3 | 1440 | 38.7 | 48 | > 5 | 2740 | 12.5 | C[C@]12Cc3cnn(-c4ccc(F)cc4)c3C=C1CC[C@@H]2C(=O)N(CCO)Cc1ccccc1F [Compound 25, (4α,5S)-N-(2-fluorobenzyl)-1-(4-fluorophenyl)-N-(2-hydroxyethyl)-4α-methyl-1,4,4α,5,6,7-hexahydrocyclopenta[f]indazole-5-carboxamide]
10.6 | 1220 | 45.4 | 56 | > 5 | 1290 | 8.9 | C[C@]12Cc3cnn(-c4ccc(F)cc4)c3C=C1CC[C@@H]2C(=O)N(CCO)Cc1cc(F)c(F)c(F)c1 [Compound 28, (4αR,5S)-1-(4-fluorophenyl)-N-(2-hydroxyethyl)-4α-methyl-N-(3,4,5-trifluorobenzyl)-1,4,4α,5,6,7-hexahydrocyclopenta[f] indazole-5-carboxamide]
3.8 | 45.4 | 14.2 | 18 | > 5 | 1700 | 19.4 | C[C@]12Cc3cnn(-c4ccc(F)cc4)c3C=C1CC[C@@H]2C(=O)Nc1ccccc1S(N)(=O)=O [Compound 23, (4αR,5S)-N-[2-(aminosulfonyl)phenyl]-1-(4-fluorophenyl)-4α-methyl-1,4,4α,5,6,7-hexahydrocyclopenta[f]indazole-5-carboxamide]
